In paper PMC5632533, “Mechanisms of action and in vivo antibacterial efficacy assessment of five novel hybrid peptides derived from Indolicidin and Ranalexin against Streptococcus pneumoniae” (PeerJ, 2017):

Test system: ICR (CD-1) mice
Experiment: In vivo toxicity in mice (SC, IN, IP routes)
Design: Aspartate aminotransferase, AST / Alanine transaminase, ALT / Alkaline phosphatase, ALP / Creatinine / Urea / Total bilirubin: unit not given here
Details: for Eosinophil / Erythrocytes, RBC / Hematocrit, HCT / Hemoglobin Hgb / Lymphocytes / Mean corpuscular haemoglobin concentration, MCHC / Mean corpuscular haemoglobin, MCH / Mean corpuscular volume, MCV / Monocytes / White blood cells, WBC / platelet Counts, PLT / Granulocytes / Alanine transaminase, ALT / Alkaline phosphatase, ALP / Aspartate aminotransferase, AST / Creatinine / Total bilirubin / Urea: 3 doses (1hr, 12hr, 24hr), RN7-IN9, RN7-IN6 10 mg/kg, day 7, mean±SD, 4 mice; for maximum IP dose at which no signs of stress or abnormal behavior were evident (non-toxic dose): doses at 1 h, 12 h, 24 h, no death up to seven days; for Alanine transaminase, ALT / Alkaline phosphatase, ALP / Aspartate aminotransferase, AST / Creatinine / Total bilirubin / Urea: serum
Method: In this study, 4-week old male, pathogen free ICR (CD-1) mice were purchased from InVivos (Lim Chu Kang, Singapore) and used to assess the in vivo toxicity and antibacterial efficacy of the novel peptides, as these animals are by far the most commonly used model for the study of pneumococcal disease ([Chiavolini, Pozzi & Ricci, 2008]). The mice were kept in ventilated polycarbonate cages (12 h light/dark cycle, 20 ± 2 °C and 55% relative humidity). All mice were familiarized for seven days before any experimental procedure and were given unlimited pellets and water ad libitum. All animal experimentations were conducted according to the guidelines approved by Faculty of Medicine Institutional Animal Care and Use Committee (FOM IACUC), University of Malaya (ethics Reference no. : 2013-07-15/MMBTR/SDS).
In order to evaluate the possible toxic effects correlated to peptides administered in mice, four hybrid peptides RN7-IN10, RN7-IN9, RN7-IN8 and RN7-IN6 were chosen for in vivo toxicity assessment, due to their promising in vitro antibacterial activity ([Jindal et al., 2015]). Mice were separated into four groups (each with four mice) and were injected with respective peptides at 1 h, 12 h, and 24 h (three-dose regimen) via IP, SC, and IN administration routes. The hybrid peptides were first administered at high doses (100 mg/kg for IP route, 100 mg/kg for SC routes and 20 mg/kg for IN route). Any abnormal behavior was recorded and survival of mice was noted as well. In case adverse effects such as high physical stress, severe lethargy, physical inactiveness, and/or death were detected, lower graded doses were given. All the administered mice were monitored for seven days or until death occurred. At day seven post administration, all animals were sacrificed and blood and organs were collected. Untreated mice were used as a control group.
Mice used to evaluate the in vivo toxicity and antibacterial activity of the hybrid peptides using the subcutaneous (SC) and intranasal (IN) administration routes, were anesthetized using a combination of a standard dose of xylazine (ilium xylazil-20, 10 mg/kg) and ketamine (Narketan®-10, 100 mg/kg) through intraperitoneal (IP) injection. After seven days of treatment, the in vivo toxicity and antibacterial efficacy experiments were ended and the surviving mice were anesthetized. Blood samples for Hematological and biochemical analysis were collected via cardiac puncture using a 25G syringe (BD bioscience, San Jose, CA, USA). Whole blood for heamatological analysis was collected in 500 µl dipotassium EDTA microtainer tubes (BD Bioscience, USA). About 500 µl of blood collected an eppedorff tube and centrifuged at 8000 rpm for 5 min and then the serum was transferred into a new 1.5 ml tube for biochemistry analysis. The mice were then euthanized by cervical dislocation, dissected and the following organs were collected for histopathology evaluation: lung, kidney, brain, liver and spleen.
For whole blood analysis, the parameters were number of red cells (RBC), number of white cells (WBC), lymphocytes, monocytes, eosinophil, granulocytes, haemoglobin (Hgb), mean corpuscular volume (MCV), hematocrit (HCT), platelet Counts (PLT), Mean corpuscular haemoglobin (MCH) and corpuscular haemoglobin concentration (MCHC). For biochemistry analysis, the parameters were alanine transaminase (ALT), creatinine, alkaline phosphatase (ALP), aspartate aminotransferase (AST), total bilirubin and urea.
The following organs were collected from all the dissected mice: lung, kidney, brain, spleen, and liver. All tissues were fixed in 10% (v/v) buffered formalin and processed for paraffin embedding. Hematoxylin–eosin (HE) was used to stain the histological sections at the histopathology laboratory, Veterinary Laboratory Service Unit, University Putra Malaysia (UPM).

[1] = IN, head doses: RN7-IN10, RN7-IN8 20 mg/kg
[2] = SC, head doses: RN7-IN10, RN7-IN8 20 mg/kg

With “FLGGLIKWWPWRR-NH2 [RN7-IN6, hybrid peptide of ranalexin (residues 1-7) and indolicidin (residues 8-13)]” the Eosinophil [1] was 3.5±0.9%, the “Erythrocytes, RBC” value [1] was 9.12±0.25 10^6/mm^3 and the “Hematocrit, HCT” value [1] was 47.43±0.61%. For the same substance, the “Hemoglobin Hgb” value [1] was 15 ± 0.28 g/dL, the Lymphocytes [1] was 47.67±12.2% and the “Mean corpuscular haemoglobin concentration, MCHC” value [1] was 31.7 ± 0.21 g/dL. The “Mean corpuscular haemoglobin, MCH” value [1] was 16.5 ± 0.17 pg, the “Mean corpuscular volume, MCV” value [1] was 52.66±1.24 µm^3 and the Monocytes [1] was 2.7±0.57%. For the same substance, the “White blood cells, WBC” value [1] was 3.6±0.35 10^3/mm^3, the “platelet Counts, PLT” value [1] was 597.66±123.23 10^3/mm^3 and the Eosinophil (IP, RN7-IN10, RN7-IN8 20 mg/kg) was 3.22±1.47%. The “Erythrocytes, RBC” value (IP, RN7-IN10, RN7-IN8 20 mg/kg) was 8.71±0.44 10^6/mm^3, the Granulocytes (IP, RN7-IN10, RN7-IN8 20 mg/kg) was 57.87±11.66% and the “Hematocrit, HCT” value (IP, RN7-IN10, RN7-IN8 20 mg/kg) was 44.97±1.75%. For the same substance, the “Hemoglobin Hgb” value (IP, RN7-IN10, RN7-IN8 20 mg/kg) was 15.02 ± 0.59 g/dL, the Lymphocytes (IP, RN7-IN10, RN7-IN8 20 mg/kg) was 54.6±3.8% and the “Mean corpuscular haemoglobin concentration, MCHC” value (IP, RN7-IN10, RN7-IN8 20 mg/kg) was 33.42 ± 0.62 g/dL. For the same substance, the “Mean corpuscular haemoglobin, MCH” value (IP, RN7-IN10, RN7-IN8 20 mg/kg) was 16.67 ± 1.07 pg, the “Mean corpuscular volume, MCV” value (IP, RN7-IN10, RN7-IN8 20 mg/kg) was 50.5±1.29 µm^3 and the Monocytes (IP, RN7-IN10, RN7-IN8 20 mg/kg) was 2.53±0.33%. The “White blood cells, WBC” value (IP, RN7-IN10, RN7-IN8 20 mg/kg) was 4.1±0.72 10^3/mm^3, the “platelet Counts, PLT” value (IP, RN7-IN10, RN7-IN8 20 mg/kg) was 540.75±107.41 10^3/mm^3 and the “maximum IP dose at which no signs of stress or abnormal behavior were evident (non-toxic dose)” value (IP) was 10 mg/kg. The Eosinophil [2] was 2.7±0.71%, the “Erythrocytes, RBC” value [2] was 9.59±0.92 10^6/mm^3 and the Granulocytes [2] was 51.12±5.16%. The “Hematocrit, HCT” value [2] was 49.2±4.43%, the “Hemoglobin Hgb” value [2] was 16.17 ± 1.44 g/dL and the Lymphocytes [2] was 51.85±3.3%. For the same substance, the “Mean corpuscular haemoglobin concentration, MCHC” value [2] was 32.87 ± 0.42 g/dL, the “Mean corpuscular haemoglobin, MCH” value [2] was 16.85 ± 0.3 pg and the “Mean corpuscular volume, MCV” value [2] was 50±1.82 µm^3. The Monocytes [2] was 2.8±0.25%, the “White blood cells, WBC” value [2] was 3.86±0.34 10^3/mm^3 and the “Alanine transaminase, ALT” value [1] was 43.2±7.56. For the same substance, the “Alkaline phosphatase, ALP” value [1] was 138.33±5.5, the “Aspartate aminotransferase, AST” value [1] was 140±7.2 and the Creatinine [1] was 40.15±3.6. For the same substance, the Total bilirubin [1] was 1.95±0.08, the Urea [1] was 10.14±1.52 and the “Alkaline phosphatase, ALP” value (IP, RN7-IN10, RN7-IN8 20 mg/kg) was 114.97±24.9. For the same substance, the “Aspartate aminotransferase, AST” value (IP, RN7-IN10, RN7-IN8 20 mg/kg) was 176±19.31, the Creatinine (IP, RN7-IN10, RN7-IN8 20 mg/kg) was 41.47±4.2 and the Total bilirubin (IP, RN7-IN10, RN7-IN8 20 mg/kg) was 2.1±0.1. The Urea (IP, RN7-IN10, RN7-IN8 20 mg/kg) was 8.97±1.17, the “Alanine transaminase, ALT” value [2] was 43.32±10.3 and the “Alkaline phosphatase, ALP” value [2] was 106.56±20.1. For the same substance, the “Aspartate aminotransferase, AST” value [2] was 158.25±18.9, the Creatinine [2] was 34.89±0.25 and the Total bilirubin [2] was 2.03±0.14. It also gave a Urea [2] of 9.07±2.02.

In the case of “FLGGLIKWPWWPWRR-NH2 [RN7-IN8, hybrid peptide of ranalexin (residues 1-7) and indolicidin (residues 6-13)]”, the Eosinophil [1] is reported as 4.3±3.6%, the “Erythrocytes, RBC” value [1] is reported as 8.95±0.53 10^6/mm^3 and the Granulocytes [1] is reported as 52.9±9.54%. For the same substance, the “Hematocrit, HCT” value [1] was 44.8±2.9%, the “Hemoglobin Hgb” value [1] was 14.42 ± 0.76 g/dL and the Lymphocytes [1] was 45.6±14.31%. For the same substance, the “Mean corpuscular haemoglobin concentration, MCHC” value [1] was 32.22 ± 0.4 g/dL, the “Mean corpuscular haemoglobin, MCH” value [1] was 16.12 ± 0.33 pg and the “Mean corpuscular volume, MCV” value [1] was 50.25±1.25 µm^3. For the same substance, the Monocytes [1] was 3.22±0.68%, the “White blood cells, WBC” value [1] was 3.95±0.54 10^3/mm^3 and the “platelet Counts, PLT” value [1] was 612±130.37 10^3/mm^3. For the same substance, the Eosinophil (IP, RN7-IN10, RN7-IN8 20 mg/kg) was 2.34±0.63%, the “Erythrocytes, RBC” value (IP, RN7-IN10, RN7-IN8 20 mg/kg) was 8.14±0.34 10^6/mm^3 and the Granulocytes (IP, RN7-IN10, RN7-IN8 20 mg/kg) was 53.38±12.35%. The “Hematocrit, HCT” value (IP, RN7-IN10, RN7-IN8 20 mg/kg) was 42.73±1.66%, the “Hemoglobin Hgb” value (IP, RN7-IN10, RN7-IN8 20 mg/kg) was 14.55 ± 0.17 g/dL and the Lymphocytes (IP, RN7-IN10, RN7-IN8 20 mg/kg) was 53.7±8.22%. The “Mean corpuscular haemoglobin concentration, MCHC” value (IP, RN7-IN10, RN7-IN8 20 mg/kg) was 34.17 ± 1.13 g/dL, the “Mean corpuscular haemoglobin, MCH” value (IP, RN7-IN10, RN7-IN8 20 mg/kg) was 17.92 ± 0.56 pg and the “Mean corpuscular volume, MCV” value (IP, RN7-IN10, RN7-IN8 20 mg/kg) was 52.75±0.95 µm^3. For the same substance, the Monocytes (IP, RN7-IN10, RN7-IN8 20 mg/kg) was 2.77±0.88%, the “White blood cells, WBC” value (IP, RN7-IN10, RN7-IN8 20 mg/kg) was 4.18±0.36 10^3/mm^3 and the “platelet Counts, PLT” value (IP, RN7-IN10, RN7-IN8 20 mg/kg) was 472.5±100.52 10^3/mm^3. For the same substance, the “maximum IP dose at which no signs of stress or abnormal behavior were evident (non-toxic dose)” value (IP) was 20 mg/kg, the Eosinophil [2] was 2.42±0.61% and the “Erythrocytes, RBC” value [2] was 9.17±0.83 10^6/mm^3. The Granulocytes [2] was 58.62±9.82%, the “Hematocrit, HCT” value [2] was 46.15±3.69% and the “Hemoglobin Hgb” value [2] was 15.82 ± 1.11 g/dL. For the same substance, the Lymphocytes [2] was 43.85±6.28%, the “Mean corpuscular haemoglobin concentration, MCHC” value [2] was 34.38 ± 0.52 g/dL and the “Mean corpuscular haemoglobin, MCH” value [2] was 17.32 ± 0.49 pg. The “Mean corpuscular volume, MCV” value [2] was 50.25±0.95 µm^3, the Monocytes [2] was 1.92±0.15% and the “White blood cells, WBC” value [2] was 3.47±0.48 10^3/mm^3. The “platelet Counts, PLT” value [2] was 445.75±47.21 10^3/mm^3, the “Alanine transaminase, ALT” value [1] was 44.5±18.9 and the “Alkaline phosphatase, ALP” value [1] was 128.5±21.7. The “Aspartate aminotransferase, AST” value [1] was 176.3±31.91, the Creatinine [1] was 40.56±1.74 and the Total bilirubin [1] was 2.21±0.18. For the same substance, the Urea [1] was 8.89±1.30, the “Alanine transaminase, ALT” value (IP, RN7-IN10, RN7-IN8 20 mg/kg) was 62.1±23.84 and the “Alkaline phosphatase, ALP” value (IP, RN7-IN10, RN7-IN8 20 mg/kg) was 115.4±34.9. For the same substance, the “Aspartate aminotransferase, AST” value (IP, RN7-IN10, RN7-IN8 20 mg/kg) was 148.9±21.51, the Creatinine (IP, RN7-IN10, RN7-IN8 20 mg/kg) was 39.2±3.81 and the Total bilirubin (IP, RN7-IN10, RN7-IN8 20 mg/kg) was 1.98±0.11. The Urea (IP, RN7-IN10, RN7-IN8 20 mg/kg) was 10.34±2.36, the “Alanine transaminase, ALT” value [2] was 50±5.49 and the “Alkaline phosphatase, ALP” value [2] was 134±8.24. For the same substance, the “Aspartate aminotransferase, AST” value [2] was 170.75±14.52, the Creatinine [2] was 43.4±0.8 and the Total bilirubin [2] was 1.84±0.12. It also gave a Urea [2] of 9.61±3.02.
